{"source": "patent US20220040252A1", "about": "“TREATMENT OF PROSTATE CANCER BY ANDROGEN ABLATION AND IL-8 BLOCKADE” (The Trustees of Columbia University in the City of New York, priority 2019, published 2022)", "key": {"[1]": {"tested_on": "IL-8", "test": "qRT-PCR quantification of IL-8 in LNCaP cells", "type": "cell-based, human", "conditions": "LNCaP cells in androgen-free media, FIG. 1f", "procedure": "Myc-Cap, derived from spontaneous prostate cancer in c-Myc transgenic mice, was a generous gift from Dr. C. Sawyers. To generate MCRedAL, Myc-Cap cells were transfected with pRetroQ-mCherry-C1 (Clontech) using lipofectamine 2000 (Invitrogen) and isolated by FACS sorting based on mCherry expression (Extended Data FIG. 1a). Myc-Cap and MCRedAL cells were cultured in DMEM as previously described. LNCaP, VCaP, E006AA, CWR22Rv1, DU145, and PC3 cell lines were obtained and cultured as recommended by the ATCC. LAPC4 (a gift from Dr. S. Yegnasubramanian) were maintained in RPMI-1640 (Corning) supplemented with 10% fetal bovine serum (FBS; Gemini Bio-Products). Androgen independent LNCaP-abl cells were a gift from Dr. Z. Culig and cultured as described previously^29. LAPC4-CR and VCaP-CR (a gift from S. Yegnasubramanian) were derived by passaging LAPC4 and VCaP cells through castrated animals and further subculturing in RPMI-1640 supplemented with 10% charcoal stripped serum (CSS; Gemini Bio-Products) supplemented with 1×B-27 Neuronal Supplement (Gibco). For experiments when cells were grown in androgen-free conditions, 10% FBS was substituted for 10% CSS in complete media. For migration/chemotaxis assays, prostate cancer cell lines were cultured in complete media containing either 0.5% or 2.5% FBS for human and murine cells, respectively. […]"}, "[2]": {"tested_on": "IL-8 (CXCL8) promoter", "conditions": "LNCaP cells, DHT 100 nM", "quoted_text": "Chromatin immunoprecipitation was performed. In brief, LNCaP cells were washed with serum-free media and then grown in media containing 10% charcoal stripped FBS for 48 hours. Cells were treated with 100 nM DHT or vehicle for 8 hours. DNA was cross-linked with 1% formaldehyde in PBS for 10 minutes and crosslinking was quenched by addition of 0.125 M glycine. Fixed cells were then lysed in lysis buffer (1% SDS, 5 mM EDTA, 50 mM Tris HCl, pH8.1) and sonicated to a fragment size of 200-600 bp using a Covaris water bath sonicator (Woburn, Mass.). Sheared chromatin was then incubated with primary antibodies (AR [06-680, Millipore], H3K4me3 [ab8580, Abcam], phospho-SerS RNA polymerase 2 [ab5131, Abcam], RNA polymerase 2 [4H8, Cell Signaling Technologies] or control IgG [Cell Signaling Technologies]) overnight at 4° C. Complexes were immobilized on Dynabeads (Thermo Fisher) by incubating for 4 hours at 4° C. Beads were sequentially washed with TSEI (0.1% SDS, 1% Triton X-100, 2 mM EDTA, 20 mM Tris HCl, pH 8.1, 150 mM NaCl), TSEII (0.1% SDS, 1% Triton X-100, 2 mM EDTA, 20 mM Tris HCl, pH 8.1, 500 mM NaCl) and TSEIII (0.25 M LiCl, 1% NP-40, 1% deoxycholate, 1 mM EDTA, 10 mM Tris HCl, pH 8.1). […] Enriched DNA libraries were analyzed using primers specific to IL-8 locus: Forward: 5′ [sequence] […] 3′ (SEQ ID NO: 2) using quantitative (q) RT-PCR. […]"}, "[3]": {"tested_on": "PSA (KLK3) promoter", "conditions": "LNCaP cells, DHT 100 nM, FIG. 1h right", "quoted_text": "Chromatin immunoprecipitation was performed. In brief, LNCaP cells were washed with serum-free media and then grown in media containing 10% charcoal stripped FBS for 48 hours. Cells were treated with 100 nM DHT or vehicle for 8 hours. […] Fixed cells were then lysed in lysis buffer (1% SDS, 5 mM EDTA, 50 mM Tris HCl, pH8.1) and sonicated to a fragment size of 200-600 bp using a Covaris water bath sonicator (Woburn, Mass.). Sheared chromatin was then incubated with primary antibodies (AR [06-680, Millipore], H3K4me3 [ab8580, Abcam], phospho-SerS RNA polymerase 2 [ab5131, Abcam], RNA polymerase 2 [4H8, Cell Signaling Technologies] or control IgG [Cell Signaling Technologies]) overnight at 4° C. Complexes were immobilized on Dynabeads (Thermo Fisher) by incubating for 4 hours at 4° C. Beads were sequentially washed with TSEI (0.1% SDS, 1% Triton X-100, 2 mM EDTA, 20 mM Tris HCl, pH 8.1, 150 mM NaCl), TSEII (0.1% SDS, 1% Triton X-100, 2 mM EDTA, 20 mM Tris HCl, pH 8.1, 500 mM NaCl) and TSEIII (0.25 M LiCl, 1% NP-40, 1% deoxycholate, 1 mM EDTA, 10 mM Tris HCl, pH 8.1). DNA was eluted with IP Elution buffer (1% SDS, 0.1M NaHCO3, proteinase K) and incubated at 56° C. for 15 minutes. […] Data is shown as relative enrichment normalized to input DNA."}, "[4]": {"tested_on": "IL-8 (CXCL8) promoter", "conditions": "LNCaP cells, cited from earlier work"}, "[5]": {"tested_on": "Cxcl15", "test": "Cxcl15 expression in benign prostate epithelium of mice (RISH, qRT-PCR)", "type": "in vivo, mouse", "conditions": "WT mice treated with ADT followed by testosterone repletion, FIG. 2g", "source_text": "Eight-week-old male HOXB13-GFP mice carrying the Hoxb13-rtTA transgene and a Tetracycline operator—Histone 2B-Green Fluorescent Protein (TetO-H2BGFP), which results on GFP expression being restricted to luminal epithelial Hoxb13^+ cells (described previously), were castrated via bilateral orchiectomy. A cycle of prostate regression/regeneration was induced as described previously. Briefly, mice were allowed to regress for six weeks to reach the fully involuted state. Mice were randomized to ADT or ADT+testosterone (T) treatment groups. Testosterone was administered for four weeks for prostate regeneration by subcutaneous pellets; this regimen yields physiological levels of serum testosterone. All mice received 2 mg/ml of Doxycycline (Sigma) in the drinking water to induce GFP expression under the control of the luminal epithelial promoter, HoxB13, one week prior euthanizing them for their analysis.\nManual fluorescent RNAScope was performed on formalin-fixed and zinc-fixed paraffin embedded sections using company protocols. Briefly, sections were cut at 5 μm, air dried overnight, baked at 60° C. for 1 hrs, dewaxed and air-dried before pre-treatments. RNAScope Cxcl15, 3-plex positive control probes (Polr2a, Ppib, Ubc) and 3-plex negative control probes (DapB of Bacillus subtilis strain) from Advanced Cell Diagnostics (ACD) were used in this study. […]"}, "[6]": {"tested_on": "IL-8", "conditions": "men undergoing ADT with testosterone supplementation vs ADT, FIG. 2h; cited from earlier work"}, "[7]": {"tested_on": "Myc-Cap tumors", "test": "Immune infiltration (PMN-MDSC, TIL, TAM) of Myc-Cap tumors by flow cytometry", "type": "in vivo, mouse", "conditions": "Myc-Cap allografts after ADT, FIG. 3b", "quoted_text": "Eight-week-old male FVB/NJ and J:NU mice were subcutaneously inoculated in the right flank with either Myc-Cap or MCRedAL (1×10^6 cells/mouse), and LNCaP or PC3 (3×10^6 cells/mouse), respectively. Tumor diameters were measured with electronic calipers every 3 days as indicated and the tumor volume was calculated using the formula: [longest diameter×(shortest diameter)^2]/2. Myc-Cap tumor bearing mice received androgen-deprivation therapy (ADT) 4 weeks after tumor implantation when tumor volume reached ˜500 mm^3, as indicated in figure legends. […] Onset of castration-resistance was defined as the time to tumor size increased by 30% (˜650 mm^3) after ADT. Chemical castration by ADT was compared to bilateral orchiectomy as described in FIG. 1a. […]\nSingle-cell suspensions from prostate tumor and tissues were prepared using the Mouse Tumor Dissociation Kit according to the manufacturer's recommendations (Miltenyi). […] Gates of cytokines were determined by fluorescence minus one (FMO) controls. Staining was visualized by fluorescenceactivated cell sorting (FACS) analysis using a BD FACSCelesta™ (BD Biosciences) and analyzed using FlowJo® (Flowjo LLC). […]"}, "[8]": {"tested_on": "Cxcl15", "test": "Expression analysis of sorted MCRedAL tumor cells pre- and post-ADT", "type": "in vivo, mouse", "procedure": "Eight-week-old male FVB/NJ and J:NU mice were subcutaneously inoculated in the right flank with either Myc-Cap or MCRedAL (1×10^6 cells/mouse), and LNCaP or PC3 (3×10^6 cells/mouse), respectively. Tumor diameters were measured with electronic calipers every 3 days as indicated and the tumor volume was calculated using the formula: [longest diameter×(shortest diameter)^2]/2. Myc-Cap tumor bearing mice received androgen-deprivation therapy (ADT) 4 weeks after tumor implantation when tumor volume reached ˜500 mm^3, as indicated in figure legends. […]\nTumors collected at different treatment time points were minced, lysed in CelLytic MT (Sigma) containing halt protease and phosphatase inhibitor (Thermo Fisher) in a 1:100 ratio, and incubated on ice for 30 minutes with intermittent vortexing. […] IL-8 and Cxcl15 were analyzed by ELISA kits following the manufacturer's instructions (BD Bioscience and R&D Systems, respectively).\nMCRedAL tumor were harvested when their tumor volume reached ˜500 mm^3 (CS group), and 7 days after chemical castration (ADT). […] Resulting CEL files were analyzed in Affymetrix Expression Console (v. 1.4) using the SST-RMA method, and all samples passed the quality control. Log2 probe intensities were extracted from CEL (signal intensity) files and normalized using RMA quantile normalization, then further analyzed using Partek Genomics Suite v6.6. […]"}, "[9]": {"tested_on": "IL-8", "conditions": "high-risk PCa patients treated with ADT (degarelix 240 mg SQ) vs untreated controls, FIG. 2i", "quoted_text": "Formalin fixed, paraffin embedded (FFPE) human prostate cancer samples were obtained from consented patients treated with ADT (degarelix; 240 mg SQ) in a neo-adjuvant trial (NCT01696877) and matched control radical prostatectomies were obtained from patients treated at the Johns Hopkins Sidney Kimmel Comprehensive Cancer Center (Baltimore, Md.) under IRB-approved clinical protocol J1265. All patients provided written, informed consent. Total RNA was extracted using Trizol (Ambion). cDNA was prepared from total RNA preps using the RNA to cDNA EcoDry Premix (Clontech). Real-time assays were conducted using TaqMan real-time probes (Applied Biosystems). AA CT method was used for relative gene expression. Expression of the target gene was normalized to the reference gene (18S) and the mean expression level of the control group. LCM samples were normalized to 18S, TBP, and GAPDH reference genes. […] Sections were deparaffinized, hydrated and stained with hematoxylin prior to microdissection. Individual cancer cells and cancer cell clusters were microdissected by a trained pathologist using a LMD 7000 laser capture microscope (Leica). RNA was recovered from the microdisseceted material using the RNeasy FFPE kit (Qiagen). Quantitative RT-PCR was performed as described above. For the analysis, a Mann-Whitney U test was performed."}}, "note": "Where two headings read alike, the source gives them in different places.", "data": [{"compound": "C[C@]12CCC(=O)C[C@@H]1CC[C@@H]1[C@@H]2CC[C@]2(C)[C@@H](O)CC[C@@H]12", "note": "[DHT, dihydrotestosterone]", "values": [{"measurement": "IL-8 expression (qRT-PCR)", "setting": "[1]", "value": "did not affect IL-8 expression"}, {"measurement": "androgen dependent AR binding at the IL-8 promoter (ChIP-qRT-PCR)", "setting": "[2]; FIG. 1h", "value": "verified by ChIP-qRT-PCR"}, {"measurement": "binding of pol II, pSer2 pol II and H3K4me3 to the IL-8 locus", "setting": "[2]; FIG. 1h left", "value": "substantially reduced"}, {"measurement": "pSer2 pol II binding to the promoter of PSA (KLK3)", "setting": "[3]", "value": "significantly increased"}, {"measurement": "AR binding at the IL-8 promoter (in silico ChIP-Seq analysis, GSE83860)", "setting": "[4]; DHT 100 nM, FIG. 1g top", "value": "found AR binding at the IL-8 promoter"}]}, {"compound": "C[C@]12CC[C@H]3[C@@H](CCC4=CC(=O)CC[C@@]43C)[C@@H]1CC[C@@H]2O", "note": "[testosterone]", "values": [{"measurement": "epithelial Cxcl15 expression", "setting": "[5]", "value": "expression significantly decreased by testosterone repletion"}, {"measurement": "IL-8 mRNA expression", "setting": "[6]", "value": "significantly reduced IL-8 mRNA expression"}]}, {"compound": "TNFα", "values": [{"measurement": "IL-8 expression (qRT-PCR)", "setting": "[1]", "value": "upregulated IL-8 expression in a dose-dependent manner"}, {"measurement": "p65 binding at the IL-8 (CXCL8) promoter (ChIP-Seq, GSE83860)", "setting": "[4]; TNFα 1000 U/ml, FIG. 1g bottom", "value": "significantly increased p65 binding"}]}, {"compound": "degarelix acetate [ADT]", "values": [{"measurement": "T cell influx into tumor", "setting": "[7]", "value": "promoted a transient T cell influx"}, {"measurement": "tumor associated macrophage (TAM) populations", "setting": "[7]", "value": "without significant changes in tumor associated macrophage (TAM) populations"}, {"measurement": "Cxcl15 transcript (microarray)", "setting": "[8]; MCRedAL tumor cells, 7 days after chemical castration vs castration-sensitive, FIG. 1d", "value": "significantly up-regulated post-ADT"}, {"measurement": "Cxcl15 (qRT-PCR and ELISA)", "setting": "[8]; post-ADT, data not shown", "value": "confirmed the upregulation of Cxcl15 post-ADT at the protein level"}, {"measurement": "IL-8 expression (qRT-PCR)", "setting": "[9]", "value": "increased IL-8 expression"}]}]}
